ChEMBL document CHEMBL1201862, “PubChem BioAssay data set” (2004)
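Test compounds were applied to cells in 96-well plates for 48 hours at 5 doses. GI50 marks 50% less growth.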 The source made the active and inactive calls. Cut-off read from the data, not from the text of the source: active = GI50 up to about 1.1 µM and inactive = higher.

Legend:
Experiment in all cases: NCI-60 cell line screen, 48 h
NCI-H226 = system: NCI-H226
HCC 2998 = system: HCC 2998
LXFL 529 = system: LXFL 529
RXF 393 = system: RXF 393
CCRF-CEM = system: CCRF-CEM
RXF 631 = system: RXF 631
KM12 = system: KM12
KM-20L2 = system: KM-20L2
HT-29 = system: HT-29
A549 = system: A549
SW-620 = system: SW-620
UACC-257 = system: UACC-257
M14 = system: M14
SN12C = system: SN12C
M19-MEL = system: M19-MEL
NCI-H460 = system: NCI-H460
UACC-62 = system: UACC-62
Malme-3M = system: Malme-3M
SF-268 = system: SF-268
SNB-75 = system: SNB-75
HOP-92 = system: HOP-92
UO-31 = system: UO-31
SK-MEL-2 = system: SK-MEL-2
EKVX = system: EKVX
ACHN = system: ACHN
XF498 = system: XF498
DLD-1 = system: DLD-1
OVCAR-3 = system: OVCAR-3
DMS-273 = system: DMS-273
K562 = system: K562
LOX IMVI = system: LOX IMVI
RPMI-8226 = system: RPMI-8226
HCT-116 = system: HCT-116
SR = system: SR
IGROV-1 = system: IGROV-1
HOP-62 = system: HOP-62
SF-539 = system: SF-539
HL-60 = system: HL-60
SK-MEL-28 = system: SK-MEL-28
SK-OV-3 = system: SK-OV-3
HOP-18 = system: HOP-18
MOLT-4 = system: MOLT-4
NCI-H23 = system: NCI-H23
SK-MEL-5 = system: SK-MEL-5
OVCAR-5 = system: OVCAR-5
HCT-15 = system: HCT-15
A498 = system: A498
DMS-114 = system: DMS-114
COLO 205 = system: COLO 205
SF-295 = system: SF-295
TK-10 = system: TK-10
OVCAR-8 = system: OVCAR-8
OVCAR-4 = system: OVCAR-4
U-251 = system: U-251

`O=[N+]([O-])c1ccccc1S(=O)(=O)c1ccccc1` was tested, and the GI50 (NCI-H226) was 88.1 µM (inactive), the GI50 (HCC 2998) was > 100 µM (inactive) and the GI50 (LXFL 529) was > 100 µM (inactive). For the same compound, the GI50 (RXF 393) was 77.8 µM (inactive), the GI50 (CCRF-CEM) was > 100 µM (inactive) and the GI50 (RXF 631) was 18.5 µM (inactive). For the same compound, the GI50 (KM12) was > 100 µM (inactive), the GI50 (KM-20L2) was > 100 µM (inactive) and the GI50 (HT-29) was > 100 µM (inactive). The GI50 (A549) was > 100 µM (inactive), the GI50 (SW-620) was > 100 µM (inactive) and the GI50 (UACC-257) was > 100 µM (inactive). The GI50 (M14) was > 100 µM (inactive), the GI50 (SN12C) was > 100 µM (inactive) and the GI50 (M19-MEL) was 39.4 µM (inactive). The GI50 (NCI-H460) was > 100 µM (inactive), the GI50 (UACC-62) was 54.7 µM (inactive) and the GI50 (Malme-3M) was > 100 µM (inactive). For the same compound, the GI50 (SF-268) was > 100 µM (inactive), the GI50 (SNB-75) was 23 µM (inactive) and the GI50 (HOP-92) was 80.7 µM (inactive). The GI50 (UO-31) was 28.2 µM (inactive), the GI50 (SK-MEL-2) was > 100 µM (inactive) and the GI50 (EKVX) was > 100 µM (inactive). For the same compound, the GI50 (ACHN) was > 100 µM (inactive), the GI50 (XF498) was 321 nM (active) and the GI50 (DLD-1) was > 100 µM (inactive). For the same compound, the GI50 (OVCAR-3) was > 100 µM (inactive), the GI50 (DMS-273) was > 100 µM (inactive) and the GI50 (K562) was > 100 µM (inactive). For the same compound, the GI50 (LOX IMVI) was > 100 µM (inactive), the GI50 (RPMI-8226) was > 100 µM (inactive) and the GI50 (HCT-116) was > 100 µM (inactive). The GI50 (SR) was > 100 µM (inactive), the GI50 (IGROV-1) was > 100 µM (inactive) and the GI50 (HOP-62) was > 100 µM (inactive). The GI50 (SF-539) was > 100 µM (inactive), the GI50 (HL-60) was 31.2 µM (inactive) and the GI50 (SK-MEL-28) was > 100 µM (inactive). For the same compound, the GI50 (SK-OV-3) was > 100 µM (inactive), the GI50 (HOP-18) was > 100 µM (inactive) and the GI50 (MOLT-4) was > 100 µM (inactive). For the same compound, the GI50 (NCI-H23) was 89.7 µM (inactive), the GI50 (SK-MEL-5) was 81.7 µM (inactive) and the GI50 (OVCAR-5) was > 100 µM (inactive). For the same compound, the GI50 (HCT-15) was > 100 µM, the GI50 (A498) was > 100 µM (inactive) and the GI50 (DMS-114) was 64 µM (inactive). For the same compound, the GI50 (COLO 205) was > 100 µM (inactive), the GI50 (SF-295) was > 100 µM (inactive) and the GI50 (TK-10) was > 100 µM (inactive). The GI50 (OVCAR-8) was > 100 µM (inactive), the GI50 (OVCAR-4) was 52.6 µM (inactive) and the GI50 (U-251) was > 100 µM (inactive).
